Test results reported in patent publication US9833497B2, “Human originated EGF domain proteins and use of the same” (CHENGDU SOURCEBIO LIMITED-LIABILITY COMPANY, priority 2013, dated 2017).

Assays:
Type in all cases: cell-based
[1] = system: Proteus vulgaris; assay: MIC against Gram-negative bacteria: Proteus vulgaris; settings: 5×10^5 CFU/mL
How it was run: (§1)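 Bacteria grown in LB at 37° C to McFarland 0.5, resuspended and seeded at 5×10^5 CFU/mL in 96-well plates. Purified human EGF-domain proteins two-fold serially diluted, triplicate wells; cultured at 37° C, shaking 175 rpm. MIC = lowest protein concentration with no growth.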

[2] = system: Serratia marcescens; assay: MIC against Gram-negative bacteria: Serratia marcescens; settings: 5×10^5 CFU/mL
How it was run: as §1

[3] = system: Moraxella catarrhalis; assay: MIC against Gram-negative bacteria: Moraxella catarrhalis; settings: 5×10^5 CFU/mL
How it was run: as §1

[4] = system: E. coli DH5α; assay: Antibacterial activity: MIC and growth curve against E. coli DH5α in 96-well plate; settings: minimal inhibitory concentration against E. coli DH5α; 96-well plate, 5×10^5 CFU/mL, 37° C., judged after 8 h
How it was run: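 MIC taken as lowest protein level with no bacterial growth, tracked by A600 every 30 min during 37 °C, 175 rpm culture. Two-fold protein series 50-12.5 μg/mL final, triplicate wells, against 5×10^5 CFU/mL of LB-washed mid-log cells.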

[5] = system: Klebsiella pneumonia; assay: MIC against Gram-negative bacteria: Klebsiella pneumonia; settings: 5×10^5 CFU/mL
How it was run: as §1

[6] = system: Citrobacter diversus; assay: MIC against Gram-negative bacteria: Citrobacter diversus; settings: 5×10^5 CFU/mL
How it was run: as §1

[7] = system: Proteus mirabilis; assay: MIC against Gram-negative bacteria: Proteus mirabilis; settings: 5×10^5 CFU/mL
How it was run: as §1

[8] = system: Aeromonas hydrophila; assay: MIC against Gram-negative bacteria: Aeromonas hydrophila; settings: 5×10^5 CFU/mL
How it was run: as §1

[9] = system: Enterobacter cloacae; assay: MIC against Gram-negative bacteria: Enterobacter cloacae; settings: 5×10^5 CFU/mL
How it was run: as §1

[10] = system: Pseudomonas aeruginosa; assay: MIC against Gram-negative bacteria: Pseudomonas aeruginosa; settings: 5×10^5 CFU/mL
How it was run: as §1

[11] = system: E. coli BL21; assay: MIC against Gram-negative bacteria: E. coli BL21; settings: 5×10^5 CFU/mL
How it was run: as §1

[12] = Proteus vulgaris, 96-well plate, 37° C., 10 h
[13] = Serratia marcescens, 96-well plate, 37° C., 10 h
[14] = Moraxella catarrhalis, 96-well plate, 37° C., 10 h
[15] = Klebsiella pneumonia, 96-well plate, 37° C., 10 h
[16] = Citrobacter diversus, 96-well plate, 37° C., 10 h
[17] = Proteus mirabilis, 96-well plate, 37° C., 10 h
[18] = Aeromonas hydrophila, 96-well plate, 37° C., 10 h
[19] = Enterobacter cloacae, 96-well plate, 37° C., 10 h
[20] = Pseudomonas aeruginosa, 96-well plate, 37° C., 10 h
[21] = 10 h cultivation at 37° C., two-fold serial dilution

Substance: PRT600 (CDCNPLGSLPFLTCDVDTGQCLCLSYVTGAHCEECTVGYWGLGNHLHGCSP; listed as Homo sapiens)
- MIC P. vulgaris ([1]; 96-well plate, 37° C., 10 h): 12.5 µg/mL
- MIC S. marcescens ([2]; 96-well plate, 37° C., 10 h): 25 µg/mL
- MIC M. catarrhalis ([3]; 96-well plate, 37° C., 10 h): 50 µg/mL
- MIC [4]: 25 µg/mL
- MIC K. pneumonia ([5]; 96-well plate, 37° C., 10 h): 50 µg/mL
- MIC C. diversus ([6]; 96-well plate, 37° C., 10 h): 25 µg/mL
- MIC P. mirabilis ([7]; 96-well plate, 37° C., 10 h): 25 µg/mL
- MIC A. hydrophila ([8]; 96-well plate, 37° C., 10 h): 12.5 µg/mL
- MIC E. cloacae ([9]; 96-well plate, 37° C., 10 h): 25 µg/mL
- MIC P. aeruginosa ([10]; 96-well plate, 37° C., 10 h): 25 µg/mL
- MIC E. coli BL21 ([11]; 96-well plate, 37° C., 10 h): 12.5 µg/mL

Substance: PRT17 (AGHPCTRASGHPCLNGASCVPREAAYVCLCPGGFSGPHCE; listed as Homo sapiens)
- MIC (μg/mL) P. vulgaris [1, 12]: 50 µg/mL
- MIC (μg/mL) S. marcescens [2, 13]: 25 µg/mL
- MIC (μg/mL) M. catarrhalis [3, 14]: 25 µg/mL
- MIC [4]: 12.5 µg/mL
- MIC (μg/mL) K. pneumonia [5, 15]: 25 µg/mL
- MIC (μg/mL) C. diversus [6, 16]: 50 µg/mL
- MIC (μg/mL) P. mirabilis [7, 17]: 12.5 µg/mL
- MIC (μg/mL) A. hydrophila [8, 18]: 12.5 µg/mL
- MIC (μg/mL) E. cloacae [9, 19]: 50 µg/mL
- MIC (μg/mL) P. aeruginosa [10, 20]: 12.5 µg/mL
- MIC (μg/mL) E. coli BL21 ([11]; 96-well plate, 37° C., 10 h): 12.5 µg/mL

Substance: PRT164 (YKDPCANVSCLNGATCDSDGLNGTCICAPGFTGEECD; listed as Homo sapiens)
- MIC (μg/mL) P. vulgaris ([1]; P. vulgaris, 10 h cultivation at 37° C.): 50 µg/mL
- MIC (μg/mL) S. marcescens ([2]; S. marcescens, 10 h cultivation at 37° C.): 12.5 µg/mL
- MIC (μg/mL) M. catarrhalis ([3]; M. catarrhalis, 10 h cultivation at 37° C.): 50 µg/mL
- MIC [4]: 25 µg/mL
- MIC (μg/mL) K. pneumonia ([5]; K. pneumonia, 10 h cultivation at 37° C.): 12.5 µg/mL
- MIC (μg/mL) C. diversus ([6]; C. diversus, 10 h cultivation at 37° C.): 12.5 µg/mL
- MIC (μg/mL) P. mirabilis ([7]; P. mirabilis, 10 h cultivation at 37° C.): 12.5 µg/mL
- MIC (μg/mL) A. hydrophila ([8]; A. hydrophila, 10 h cultivation at 37° C.): 50 µg/mL
- MIC (μg/mL) E. cloacae ([9]; E. cloacae, 10 h cultivation at 37° C.): 25 µg/mL
- MIC (μg/mL) P. aeruginosa ([10]; P. aeruginosa, 10 h cultivation at 37° C.): 25 µg/mL
- MIC (μg/mL) E. coli BL21 ([11]; 10 h cultivation at 37° C.): 50 µg/mL

Substance: PRT1107 (LMPLCWSKPCHNNATCEDSVDNYTCHCWPGYTGAQCE; listed as Homo sapiens)
- MIC P. vulgaris [1, 21]: 12.5 µg/mL
- MIC S. marcescens [2, 21]: 25 µg/mL
- MIC M. catarrhalis [3, 21]: 12.5 µg/mL
- MIC [4]: 12.5 µg/mL
- MIC K. pneumonia [5, 21]: 50 µg/mL
- MIC C. diversus [6, 21]: 50 µg/mL
- MIC P. mirabilis [7, 21]: 50 µg/mL
- MIC A. hydrophila [8, 21]: 12.5 µg/mL
- MIC E. cloacae [9, 21]: 25 µg/mL
- MIC P. aeruginosa [10, 21]: 12.5 µg/mL
- MIC E. coli BL21 [11, 21]: 50 µg/mL

Substance: PRT1207 (DIDECSDGFVQCDSRANCINLPGWYHCECRDGYHDNGMFSPSGESCE; listed as Homo sapiens)
- MIC against P. vulgaris [1, 12]: 12.5 µg/mL
- MIC against S. marcescens [2, 13]: 12.5 µg/mL
- MIC against M. catarrhalis [3, 14]: 25 µg/mL
- MIC [4]: 12.5 µg/mL
- MIC against K. pneumonia [5, 15]: 12.5 µg/mL
- MIC against C. diversus [6, 16]: 12.5 µg/mL
- MIC against P. mirabilis [7, 17]: 25 µg/mL
- MIC against A. hydrophila [8, 18]: 25 µg/mL
- MIC against E. cloacae [9, 19]: 25 µg/mL
- MIC against P. aeruginosa [10, 20]: 12.5 µg/mL
- MIC against E. coli BL21 ([11]; 96-well plate, 37° C., 10 h): 25 µg/mL

Substance: PRT1234 (LASGCPWMCSGRGICDAGRCVCDRGFGGPYCV; listed as Homo sapiens)
- MIC against P. vulgaris [1, 12]: 12.5 µg/mL
- MIC against S. marcescens [2, 13]: 25 µg/mL
- MIC against M. catarrhalis [3, 14]: 25 µg/mL
- MIC [4]: 25 µg/mL
- MIC against K. pneumonia [5, 15]: 25 µg/mL
- MIC against C. diversus [6, 16]: 25 µg/mL
- MIC against P. mirabilis [7, 17]: 25 µg/mL
- MIC against A. hydrophila [8, 18]: 25 µg/mL
- MIC against E. cloacae [9, 19]: 50 µg/mL
- MIC against P. aeruginosa [10, 20]: 12.5 µg/mL
- MIC against E. coli BL21 ([11]; 96-well plate, 37° C., 10 h): 50 µg/mL
